Literature values in patent US20060020045A1, “Methods and compositions for treating inflammatory disorders of the gastrointestinal tract” (priority 2004, published 2006).

Test system: dimethylhydrazine-induced colon carcinogenesis
Details: effect only when present during carcinogen administration, not if given 17 weeks following the carcinogen

SMILES: CC1=C(CC(=O)O)c2cc(F)ccc2/C1=C\c1ccc([S+](C)[O-])cc1 (stereo not shown) [sulindac]
- tumor incidence: reduce tumor incidence only when present during carcinogen administration
